Assay results reported in US6890969B2, “Polymer emulsion preservation using cationic compounds” (Air Products Polymers, L.P., priority 2000, dated 2005).
Where a name gives a salt, the structure may show the parent alone. Read-outs that look alike come from different tables or passages of the source. Marks after values point to notes of the source that are not given here.

Experiments:
GABL = GABL biochallenge test of preserved polymer emulsions (streak plate / RABIT), inoculations passed; format: cell-based, Gluconoacetobacter liquefaciens; conditions: for Inoculations Passed: PVOH-stabilized VAE emulsion, <1000 ppm vinyl acetate
Description: GABL Inoculum Preparation
A recently isolated culture of GABL was grown on potato dextrose agar slants by inoculating the agar surface. The potato dextrose agar slants were incubated for 48-72 hours at 25° C. After this incubation period, GABL cells were harvested using quarter strength Ringers solution to wash the GABL colonies off of the agar surface. The washings from each slant were combined into one sterile, Erlenmeyer flask. The number of slants and the amount of quarter strength Ringers solution used to wash off the GABL colonies was adjusted during the procedure to obtain a final microbial viable count in the range of 10^8-10^10 CFU/mL.
Rapid Automated Bacterial Impedance Technique (RABIT): supplied by Microbiology International, manufactured by Don Whitley Scientific, Ltd.
RABIT utilizes the principal of impedance microbiology to detect and assess microbial activity in a given sample. Using the RABIT, microbial metabolism is monitored by measuring the amount of carbon dioxide produced by actively respiring microorganisms. The electrodes in the RABIT test cells are partially covered with alkaline agar containing potassium hydroxide. As inoculated test samples are monitored on the RABIT, carbon dioxide produced from microbial metabolism is absorbed by the alkaline agar resulting in a change in conductivity. Conductivity is monitored with time and the time to reach a pre-specified rate of reduction in conductivity is termed the time to detection (TTD). Therefore, the shorter the TTD, the higher the number of microorganisms present. Failure can be defined as three successive decreases in conductivity equal to or greater than a pre-specified value (−10 microSiemens is recommended by the manufacturer) at any time during the 72 hour RABIT monitoring period. Alternatively, failure can be defined as a pre-specified total change in conductivity.
Biochallenge Test Procedure
Samples (50 g each) of each test emulsion containing a test antimicrobial agent were inoculated with 1.0 mL of the GABL inoculum. After mixing well, the samples were then placed in a 30° C. incubator. After 1, 2, and 6 days of incubation each sample was streak plated onto potato dextrose agar to assess the level of surviving GABL microorganisms. The potato dextrose agar plates were incubated at 25° C. for 48-72 hours before assessing the growth. On the seventh day of incubation, each test emulsion sample was inoculated again with a freshly prepared GABL inoculum, mixed well, then placed back into the incubator. The samples were again streak plated onto potato dextrose agar after incubating for 1, 2, and 6 days since the second inoculation. On the fourteenth day after the test was initiated, the test emulsions were inoculated a third time with another freshly prepared GABL inoculum and then placed back into the incubator. The samples were again streak plated onto potato dextrose agar after 1, 2, 6, and 13 days of incubation since the third inoculation to assess surviving microorganisms. Test failure is defined as a microbial viable count >300 CFU/10 μL observed from the potato dextrose agar streak plate assessments.
Biochallenge Test Procedure Via the RABIT
A small amount of a microbial nutrient was added to each emulsion test sample (50 g) containing a test antimicrobial agent. The resulting samples were then inoculated with 1.0 mL of the GABL inoculum. After mixing well, an aliquot (5 g) of each test sample was placed into separate RABIT indirect conductivity tubes. The indirect conductivity tubes were then placed into the RABIT incubator modules set at 30° C. and the conductivity changes monitored for up to 72 hours. The remainder of each test sample was stored in a 30° C. incubator during the RABIT monitoring period. At the completion of the RABIT monitoring period, the aliquot samples were placed back into their respective sample containers. Each test sample was then re-inoculated with a freshly prepared GABL inoculum. […]

mixed bacterial pool = format: cell-based; conditions: PVOH-stabilized VAE emulsion Tg 0, <1000 ppm vinyl acetate
Description: The preservative efficacy of several cationic compounds in a poly(vinyl alcohol)-stabilized VAE copolymer emulsion (Tg=0) containing less than 1000 ppm vinyl acetate was assessed according to the following procedure:
Aeromonas hydrophilia, Alcaligenes faecalis, Corynebacterium ammoniagenes, Enterobacter aerogenes, Escherichia coli, Klebsiella pneumoniae, Pseudomonas aeruginosa, Proteus vulgaris, Providencia rettgeri, Pseudomonas stutzeri, Shewanella putrefaciens, Serratia liquefaciens, Acinetobacter baumannii, Burkholderia cepacia, Chryseobacterium meningosepticum, Sphingobacterium spiritivorum, Ralstonia pickettii, and GABL.
Mixed Bacterial Pool Inoculum Preparation
Each bacterial culture was individually grown on nutrient agar slants, except GABL was grown on potato dextrose agar slants, by inoculating the agar surfaces. The nutrient agar slants were incubated for 24-48 hours at 30° C. and the potato dextrose agar slants were incubated for 48-72 hours at 25° C. After this incubation period, the cells were harvested using quarter strength Ringers solution to wash the bacterial colonies off the agar surface. The washings from all of the slants were combined into one sterile, Erlenmeyer flask. The number of slants and the amount of Ringers Solution used to wash off the bacterial colonies is adjusted during the procedure to obtain a final mixed microbial viable count in the range of 10^8-10^10 CFU/mL.
Bacterial Biochallenge Test Procedure
The RABIT procedures were followed as described in Example 1, except the mixed bacterial pool inoculum was used to inoculate the test samples instead of the GABL inoculum.

Question: Which results are given for `CCCCCCCCCCCCNC(=N)N` [DGH, n-dodecylguanidine hydrochloride]?
Answer: # of GABL Inoculations Passed (GABL; DGH 100 ppm, emulsion VA/E, Tg 0 °C, H2O2/SFS, PVOH (first such line of Table 2)): 3; # of GABL Inoculations Passed (GABL; DGH 100 ppm, emulsion VA/E, Tg 0 °C, H2O2/SFS, PVOH (second such line of Table 2)): 2; # of GABL Inoculations Passed (GABL; DGH 100 ppm, emulsion VA/E, Tg 0 °C, H2O2/SFS, PVOH/nonionic surfactant): 1; # of GABL Inoculations Passed (GABL; DGH 100 ppm, emulsion VA/E, Tg 4 °C, KPS/SFS, Nonionic surfactant/HEC): 0; # of GABL Inoculations Passed (GABL; DGH 100 ppm, emulsion VA/E, Tg 14 °C, H2O2/SFS, PVOH): 5; # of GABL Inoculations Passed (GABL; DGH 100 ppm, emulsion VA/E, Tg 20 °C, H2O2/SFS, PVOH, stopped after 4th inoculation): ≧4^b; # of GABL Inoculations Passed (GABL; DGH 100 ppm, emulsion VA/E, Tg −5 °C, H2O2/SFS, PVOH/nonionic surfactant): 1; # of GABL Inoculations Passed (GABL; DGH 100 ppm, emulsion VA/E, Tg −15 °C, H2O2/SFS, PVOH): 2; # of GABL Inoculations Passed (GABL; DGH 100 ppm, emulsion VA/E/MA/SVS, Tg 5 °C, KPS/SFS, Nonionic surfactant): 0; # of GABL Inoculations Passed (GABL; DGH 150 ppm, emulsion VA/E, Tg 0 °C, H2O2/SFS, PVOH (first such line of Table 2)): 4; # of GABL Inoculations Passed (GABL; DGH 150 ppm, emulsion VA/E, Tg 0 °C, H2O2/SFS, PVOH/nonionic surfactant): 2; # of GABL Inoculations Passed (GABL; DGH 150 ppm, emulsion VA/E, Tg 4 °C, KPS/SFS, Nonionic surfactant/HEC): 0; # of GABL Inoculations Passed (GABL; DGH 150 ppm, emulsion VA/E, Tg 14 °C, H2O2/SFS, PVOH, stopped after 7th inoculation): ≧7^a; # of GABL Inoculations Passed (GABL; DGH 150 ppm, emulsion VA/E, Tg 20 °C, H2O2/SFS, PVOH, stopped after 4th inoculation): ≧4^b; # of GABL Inoculations Passed (GABL; DGH 150 ppm, emulsion VA/E, Tg −5 °C, H2O2/SFS, PVOH/nonionic surfactant): 3; # of GABL Inoculations Passed (GABL; DGH 150 ppm, emulsion VA/E, Tg −15 °C, H2O2/SFS, PVOH): 5; # of GABL Inoculations Passed (GABL; DGH 150 ppm, emulsion VA/E/MA/SVS, Tg 5 °C, KPS/SFS, Nonionic surfactant): 0; # of GABL Inoculations Passed (GABL; DGH 200 ppm, emulsion VA/E, Tg 0 °C, H2O2/SFS, PVOH (first such line of Table 2), stopped after 7th inoculation): ≧7^a; # of GABL Inoculations Passed (GABL; DGH 200 ppm, emulsion VA/E, Tg 0 °C, H2O2/SFS, PVOH (second such line of Table 2)): 7; # of GABL Inoculations Passed (GABL; DGH 200 ppm, emulsion VA/E, Tg 0 °C, H2O2/SFS, PVOH/nonionic surfactant): 2; # of GABL Inoculations Passed (GABL; DGH 200 ppm, emulsion VA/E, Tg 4 °C, KPS/SFS, Nonionic surfactant/HEC): 0; # of GABL Inoculations Passed (GABL; DGH 200 ppm, emulsion VA/E, Tg 8 °C, KPS/SFS, PVOH): 2; # of GABL Inoculations Passed (GABL; DGH 200 ppm, emulsion VA/E, Tg 14 °C, H2O2/SFS, PVOH, stopped after 7th inoculation): ≧7^a; # of GABL Inoculations Passed (GABL; DGH 200 ppm, emulsion VA/E, Tg 20 °C, H2O2/SFS, PVOH, stopped after 4th inoculation): ≧4^b; # of GABL Inoculations Passed (GABL; DGH 200 ppm, emulsion VA/E, Tg −5 °C, H2O2/SFS, PVOH/nonionic surfactant): 3; # of GABL Inoculations Passed (GABL; DGH 200 ppm, emulsion VA/E, Tg −15 °C, H2O2/SFS, PVOH, stopped after 7th inoculation): ≧7^a; # of GABL Inoculations Passed (GABL; DGH 200 ppm, emulsion VA/E/AA, Tg 0 °C, H2O2/SFS, PVOH/nonionic surfactant): 0; # of GABL Inoculations Passed (GABL; DGH 200 ppm, emulsion VA/E/MA/SVS, Tg 5 °C, KPS/SFS, Nonionic surfactant): 0; # of GABL Inoculations Passed (GABL; DGH 200 ppm, emulsion VA/E/SVS/NMA, Tg 10 °C, TBHP/sodium erythorbate, Anionic sulfate surfactant): 0; Inoculations Passed (GABL; Tg 0 °C, biocide dosage 50 ppm active): 1; Inoculations Passed (GABL; Tg 0 °C, biocide dosage 100 ppm active): 2; Inoculations Passed (GABL; Tg 0 °C, biocide dosage 200 ppm active): 7; Inoculations Passed (mixed bacterial pool; active biocide dosage 100 ppm): 2; Inoculations Passed (mixed bacterial pool; active biocide dosage 200 ppm): 7
